# According to US20050075403A1, “Ambroxol for the treatment of inflammation in the pharynx” (priority 2003, published 2005):
# Legend:
# interleukin-2 (IL-2) = details: bronchoalveolar lavage cells and peripheral blood mononuclear cells stimulated with phythemagglutine; cited from earlier work
# interferon-γ (INF-γ) = details: bronchoalveolar lavage cells and peripheral blood mononuclear cells stimulated with phythemagglutine; cited from earlier work
# IL-1 = details: human mononuclear cells stimulated with lipopolysaccharide; cited from earlier work
# IL-10 / IL-12 balance = details: in vitro; cited from earlier work
# [1] = tested on: tumor necrosis factor α (TNF-α); details: human mononuclear cells stimulated with lipopolysaccharide; cited from earlier work
# [2] = tested on: patients suffering from oro-pharyngeal catarrh accompanied by pain (sore throat); assay: Example 1: placebo-controlled double-blind trial, two days of treatment with ambroxol lozenges; type: in vivo, human; details: up to six lozenges containing 20 mg ambroxol hydrochloride per day, vs placebo
# Source text: The activity of ambroxol according to the invention is intended to be illustrated by the following three examples of clinical trials which investigate: 1) the […] of ambroxol lozenges by measurement of the redness symptom and 2) the efficacy and tolerability of ambroxol lozenges relative to placebo in relieving the symptoms of sore throat of at least moderately severe intensity in patients suffering from oro-pharyngeal catarrh accompanied by pain.
# The first study was a multi-centre, prospective, placebo-controlled, randomized, double-blind trial involving two days of treatment with up to six lozenges containing 20 mg ambroxol hydrochloride per day.
# 109 patients were treated with ambroxol and 109 patients with placebo.
# TNF = details: in vitro; cited from earlier work
SMILES,secretion of interleukin-2 (IL-2) (interleukin-2 (IL-2)),secretion of interferon-γ (INF-γ) (interferon-γ (INF-γ)),production of IL-1 (IL-1),"inflammatory responses, local balance of IL-10 and IL-12 (IL-10 / IL-12 balance)",production of tumor necrosis factor α (TNF-α) [1],pain (primary endpoint) [2],release of inflammatory TNF (TNF)
"Nc1c(Br)cc(Br)cc1CN[C@H]1CC[C@H](O)CC1 [ambroxol, trans-4-(2-amino-3,5-dibromobenzylamino)-cyclohexanole]",decrease the secretion,decrease the secretion,inhibit the production,enhance inflammatory responses,inhibit the production,reduced statistically significantly,–
CC(C(=O)O)c1cccc(C(=O)c2ccccc2)c1 (stereo not shown) [ketoprofen],–,–,–,–,–,–,induce the release
